Data reported in US8492344B2, “PDK inhibitor compounds and methods of use thereof” (University of Florida Research Foundation, priority 2008, dated 2013).

Columns and labels:
PDH activity = PDH activity in human fibroblast cultures (14CO2 from [1-14C]-pyruvate); type: cell-based; details: for PDH activity stimulation at 0.25 mM: tested at 0.25 mM, data not shown; for PDH activity vs DMSO control (result in words): initial studies, maximum feasible dose (0.25 to 2 mM), 24 h, 3 cell lines, p≦0.05; for Change of PDH activity at 5 mM / Potency relative to DCA in increasing PDH activity: dose-response; for Potency relative to DCA in improving PDH activity at the lowest concentration tested: dose-response 0.01 to 5 mM, lowest concentration printed as 0.01 μM; for Potency relative to DCA in increasing PDH activity: 0.01 mM
Description: PDH complex activity was measured by the rate of ^14C formation from [1-^14C]-labeled pyruvate, as described in Mitochondrion 6:126-135 (2006) or Mitochondrion. 7: 253-259 (2007). Fibroblasts harvested by trypsinization from a confluent T-75 flask were washed in phosphate-buffered saline (PBS) and resuspended in PBS containing the serine protease inhibitors leupeptin and phenylmethylsulfonyl fluoride (PMSF). Cells were incubated for 15 min at 37° C. with DCA. Reactions were halted by addition of a stop solution (25 mM NaF, 25 mM EDTA, 4 mM dithiothreitol, 40% ethanol), and cells were lysed by repeated freezing and thawing. Sixteen aliquots of each fibroblast sample were assayed in test tubes for enzyme activity. Four samples that contained only lysate and water and four samples that also contained thiamine pyrophosphate and coenzyme A were assayed at reaction times of 5 and 10 min. A ^14C-labeled pyruvate aliquot of known specific activity was added to the cell lysates and the test tubes were immediately closed with a rubber stopper. The stopper was outfitted with a center well (Kimble-Kontes, Vineland, N.J.) that contained 1 cm^2 chromatography paper soaked with 100 μl hyamine hydroxide. Reactions were halted by adding stopping buffer. The ^14CO2 evolved due to PDH-mediated catalysis and trapped in the paper was determined by liquid scintillation. PDH specific activity was expressed as nmol ^14CO2 produced/min/mg protein. Excess cell lysate was used to determine total protein.
The compounds (predicted to interact with PDK2) were tested in human fibroblast cultures from three healthy subjects for their effect on PDH activity. DCA and dimethyl sulfoxide (DMSO) were used as positive and vehicle controls, respectively. Drugs were dissolved in DMSO and were used at maximum feasible dose in initial studies (0.25 to 2 mM). For dose-response experiments, concentrations used were: 0.01, 0.05, 0.1, 0.5, 1, and 5 mM. DCA was used as positive control. Cells were exposed to media with DCA, NCI compounds or DMSO vehicle for the final 24 h of culture.
Primary cultures of fibroblasts were grown at 37° C. in a humidified 5% CO2/95% air atmosphere in DMEM supplemented with 20% (v/v) FBS, 100 U/mL penicillin, 100 μg/mL streptomycin, and 6 mM L-glutamine.
Cell lysates treated with DCA or NCI compounds were incubated in a reaction buffer that contained [1-^14C]-pyruvate. PDH activity was measured by quantitation of liberated ^14CO2. (Han et al., 2007. Down-regulation of rat pyruvate dehydrogensae E1a gene by self-complementary adeno-associated virus-mediated small interfering RNA delivery. Mitochondrion. 7: 253-259). Each sample was run in triplicate, with appropriate blanks.

Solubility in DMSO = type: physicochemical

With `O=C(O)Cc1nnn[nH]1` [Compound 6, 2-(2H-tetrazol-5-yl)acetic acid] the “PDH activity stimulation at 0.25 mM” value (PDH activity) was “none of these compounds stimulated PDH activity” and the “Solubility in DMSO” value (Solubility in DMSO) was “poorly soluble in DMSO”.

With `O=C(O)C(=O)C(=O)O` [Compound 7, 2-oxopropanedioic acid] the “PDH activity stimulation at 0.25 mM” value (PDH activity) was “none of these compounds stimulated PDH activity” and the “Solubility in DMSO” value (Solubility in DMSO) was “poorly soluble in DMSO”.

For `C/C=C\C(=O)O` [Compound 24, (Z)-but-2-enoic acid], the “PDH activity vs DMSO control (result in words)” value (“PDH activity vs DMSO control” for short) (PDH activity) was “significantly increased PDH activity”.

With `O=CNCC(=O)O` [Compound 25, 2-formamidoacetic acid] the “PDH activity vs DMSO control” value (PDH activity) was “significantly increased PDH activity”.

In the case of `C/C(Cl)=C\C(=O)O` [Compound 18, (E)-3-chlorobut-2-enoic acid], the “Change of PDH activity at 5 mM” value (PDH activity) is reported as “significant decrease in PDH activity” and the “PDH activity vs DMSO control” value (PDH activity) is reported as “significantly increased PDH activity”.

With `CC(=CC(=O)O)C(=O)O` [Compound 10, 2-methylbut-2-enedioic acid] the “Potency relative to DCA in improving PDH activity at the lowest concentration tested” value (PDH activity) was “may be more potent than DCA”, the “Potency relative to DCA in increasing PDH activity” value (PDH activity) was “more potent than DCA” and the “Change of PDH activity at 5 mM” value (PDH activity) was “significant decrease in PDH activity”. For the same compound, the “PDH activity vs DMSO control” value (PDH activity) was “significantly increased PDH activity”.

For `CC(O)C(O)C(=O)O` (stereo not shown) [Compound 12, 2,3-dihydroxybutanoic acid], the “PDH activity vs DMSO control” value (PDH activity) was “significantly increased PDH activity”.

In the case of `O=C(O)Cc1cnc[nH]1` [Compound 14, 2-(3H-imidazol-4-yl)acetic acid], the “Potency relative to DCA in improving PDH activity at the lowest concentration tested” value (PDH activity) is reported as “may be more potent than DCA”, the “Potency relative to DCA in increasing PDH activity” value (PDH activity) is reported as “more potent than DCA” and the “Change of PDH activity at 5 mM” value (PDH activity) is reported as “increased PDH activity”. For the same compound, the “PDH activity vs DMSO control” value (PDH activity) was “significantly increased PDH activity”.

In the case of `O=C(O)CS(=O)(=O)O` [Compound 5, 2-sulfoacetic acid], the “PDH activity stimulation at 0.25 mM” value (PDH activity) is reported as “none of these compounds stimulated PDH activity” and the “Solubility in DMSO” value (Solubility in DMSO) is reported as “poorly soluble in DMSO”.
